In patent US10130611B2, “Use of benzo-heterocycle derivatives for preventing and treating cancer or for inhibiting cancer metastasis” (MEDICINAL BIOCONVERGENCE RESEARCH CENTER, priority 2009, dated 2018):

Assays:
MMP2 = MMP2 activity (zymography); type: cell-based, human; settings: KL1 in different amounts
Description: On MMP2 activity (FIG. 37) and cell migration (FIGS. 38 and 39), KL1-dose-dependent effect was measured. For the test on the cell migration, the cells were treated with KL1 for 8 hours. In FIG. 40, in order to see the effect of KL1 on protein synthesis of cells, A549 cells were treated with KL1 at indicated concentrations, and starved in methionine-free medium. Then, [^35S] methionine was added thereto for 2 hours. Then, the cells were incubated in complete medium for 4 hours, and the level of added methionine was measured by a scintillation counter. In FIG. 41, KL1-dose-dependent cytotoxicity was measured by using A549 cells. In FIG. 42, the effect of KL1 on cancer metastasis was measured according to the method as described above. In each group, 6 mice were included, and KL1 was abdominally injected for 3 weeks, in a dose of 30 mg/kg once a day. Then, the mice were sacrificed. The metastasized tumor nodules over 1 mm in diameter were counted, and their average was calculated (left). The photograph of a representative lung is shown at the right side. In FIG. 43, on a KL1 treated group and a KL1 non-treated, primary tumors were observed.
A549 cells were transfected with the plasmids encoding the indicated siRNAs and recombinant KRS (or DRS) were incubated for 48 and 24 hours, respectively, and were inoculated to RPMI medium containing 10% FBS (1×10^5 cells/well). […]

[1] = target: T1, intracellular interaction between KRS and 67LR (Homo sapiens, UniProt Q15046); experiment: Co-immunoprecipitation of KRS with 67LR in cells treated with KL1; type: cell-based
T1 construct: endogenous in cells
T1 sequence (Q15046 2-597 limits assumed): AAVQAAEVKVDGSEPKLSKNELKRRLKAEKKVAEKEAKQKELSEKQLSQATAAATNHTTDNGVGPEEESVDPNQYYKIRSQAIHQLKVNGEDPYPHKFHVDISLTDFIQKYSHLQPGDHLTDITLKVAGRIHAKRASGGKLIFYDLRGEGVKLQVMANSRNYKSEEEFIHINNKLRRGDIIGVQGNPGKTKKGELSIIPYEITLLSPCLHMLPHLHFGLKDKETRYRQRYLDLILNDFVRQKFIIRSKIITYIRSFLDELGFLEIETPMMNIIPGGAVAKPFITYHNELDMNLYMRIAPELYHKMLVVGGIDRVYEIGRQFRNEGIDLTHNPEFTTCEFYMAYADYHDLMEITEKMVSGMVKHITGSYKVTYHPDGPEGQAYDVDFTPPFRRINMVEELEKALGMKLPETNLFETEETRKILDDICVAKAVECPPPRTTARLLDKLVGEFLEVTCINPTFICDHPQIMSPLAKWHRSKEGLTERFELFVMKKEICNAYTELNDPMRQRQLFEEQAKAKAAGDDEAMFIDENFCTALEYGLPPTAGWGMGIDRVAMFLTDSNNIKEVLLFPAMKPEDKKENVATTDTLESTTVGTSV
Description: As a control, an OD level of cells treated with DMSO was measured. FIG. 32 is a photograph showing cell growth in wells containing yeast cells having indicated interaction pairs in the presence or absence of CAND-KL1. In FIG. 33, in 293 cells, through co-immunoprecipitation, the KL1-dose-dependent effect on the interaction between KRS and 67LR was tested. The cells were treated with KL1 for 3 hours, 67LR was immunoprecipitated, and co-precipitation of KRS was determined by western blotting. In FIG. 34, in the presence of KL1 in indicated levels, a laminin receptor labeled with radioisotope was mixed with GST-KRS (1 μg). GST-KRS was precipitated with glutathione-Sepharose beads, and co-precipitated laminin receptor was detected with autoradiography. In FIG. 35, in A549 cells, the effect of KL1 on the intracellular level of 67LR and 37LRP was tested with western blotting. […] GST-KRS was immobilized on a CM5 Sensor Chip, and the binding was measured by a resonance unit (RU) at indicated concentrations (indicated by different colors). […]
From among the compounds, the inventors also examined whether the compound represented by Formula 15 (indicated by CAND-KL1, and KL1) can inhibit the intracellular interaction between KRS and 67LR. […] Then, 67LR was immunoprecipitated with its antibody, and co-immunoprecipitation of KRS was determined. […]

CCC(C(=O)O)n1/c(=N/C(=O)c2ccc(C)cc2)sc2ccccc21 (stereo not drawn) [Compound of formula 15, 2-[2-(4-Methyl-benzoylimino)-benzothiazol-3-yl]-butyric acid]
MMP2 activity (MMP2): inhibited
level of KRS co-precipitated with 67LR ([1]; cells treated with KL1 at different concentrations, 3 hours, 67LR immunoprecipitated): decreased according the increase of KL1 level
intracellular levels of KRS and 67LR ([1]; same co-immunoprecipitation experiment (FIG. 33)): not changed
